Target: Glycogen synthase kinase-3 beta (Homo sapiens, UniProt P49841)
Assay: Inhibition of human recombinant GSK3-beta

Sequence of Glycogen synthase kinase-3 beta (P49841 whole entry): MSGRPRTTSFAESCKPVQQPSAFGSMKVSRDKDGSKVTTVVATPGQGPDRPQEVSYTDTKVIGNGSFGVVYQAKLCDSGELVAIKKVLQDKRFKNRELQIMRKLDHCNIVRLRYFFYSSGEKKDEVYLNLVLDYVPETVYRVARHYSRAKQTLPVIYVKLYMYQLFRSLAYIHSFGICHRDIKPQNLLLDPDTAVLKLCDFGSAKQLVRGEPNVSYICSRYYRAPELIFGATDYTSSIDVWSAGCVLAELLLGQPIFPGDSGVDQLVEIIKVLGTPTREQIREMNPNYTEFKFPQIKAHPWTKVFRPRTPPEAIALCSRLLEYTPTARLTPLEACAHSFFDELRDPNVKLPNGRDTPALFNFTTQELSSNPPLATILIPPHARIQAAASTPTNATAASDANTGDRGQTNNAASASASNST

## CN(C)c1nc2ccc1CCCn1cc(c3ccccc31)C1=C(C(=O)NC1=O)c1cn(c3ccccc13)CCC2
  IC50: 37 nM

Source: ChEMBL document CHEMBL1139192, “Novel bis(indolyl)maleimide pyridinophanes that are potent, selective inhibitors of glycogen synthase kinase-3” (Bioorg Med Chem Lett, 2007)
